Laboratory results taken from patent publication US20110086759A1, “CHEMICAL COMPOUNDS” (SYNGENTA CROP PROTECTION, INC., priority 2007, published 2011).

Legend:
Type in all cases: in vivo
[1] = test system: Setaria faberi (SETFA); assay: Pre-emergence biological efficacy, glasshouse pot test; conditions: 312 h
In short: (§1)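 Scores on a 0–100 damage scale were taken 13 days after spraying. Application rate 1000 or 250 g/ha, one day after sowing, in acetone/water-based aqueous spray containing 0.5% Tween 20.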

[2] = test system: Amaranthus retoflexus (AMARE); assay: as above; conditions: Amaranthus retroflexus, 312 h
In short: as §1

[3] = test system: Alopecurus myosuroides (ALOMY); assay: as above; conditions: 312 h
In short: as §1

[4] = test system: Solanum nigrum (SOLNI); assay: as above; conditions: 312 h
In short: as §1

[5] = test system: Echinochloa crus-galli (ECHCG); assay: as above; conditions: 312 h
In short: as §1

[6] = test system: Ipomea hederaceae (IPOHE); assay: as above; conditions: Ipomoea hederacea, 312 h
In short: as §1

[7] = test system: Setaria faberi (SETFA); assay: Post-emergence biological efficacy, glasshouse pot test; conditions: 312 h
In short: (§2)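 Scored 13 days after spraying on a 0 (no damage) to 100 (total damage) scale. Treatment was a post-emergence spray at 1000 or 250 g/ha, from acetone/water 50:50 plus 0.5% Tween 20, onto 8-day-old plants in soil pots. Growth at 24/16° C, 14 h photoperiod, 65% humidity, watered twice daily.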

[8] = test system: Amaranthus retoflexus (AMARE); assay: as above; conditions: Amaranthus retroflexus, 312 h
In short: as §2

[9] = test system: Alopecurus myosuroides (ALOMY); assay: as above; conditions: 312 h
In short: as §2

[10] = test system: Solanum nigrum (SOLNI); assay: as above; conditions: 312 h
In short: as §2

[11] = test system: Echinochloa crus-galli (ECHCG); assay: as above; conditions: 312 h
In short: as §2

[12] = test system: Ipomea hederaceae (IPOHE); assay: as above; conditions: Ipomoea hederacea, 312 h
In short: as §2

[13] = pre-emergence, 1,000 g/ha, evaluated after 13 days (100=total damage; 0=no damage), read-out: Percentage damage SETFA
[14] = pre-emergence, 1,000 g/ha, evaluated after 13 days (100=total damage; 0=no damage), read-out: Percentage damage AMARE
[15] = pre-emergence, 1,000 g/ha, evaluated after 13 days (100=total damage; 0=no damage), read-out: Percentage damage ALOMY
[16] = pre-emergence, 1,000 g/ha, evaluated after 13 days (100=total damage; 0=no damage), read-out: Percentage damage SOLNI
[17] = pre-emergence, 1,000 g/ha, evaluated after 13 days (100=total damage; 0=no damage), read-out: Percentage damage ECHCG
[18] = pre-emergence, 1,000 g/ha, evaluated after 13 days (100=total damage; 0=no damage), read-out: Percentage damage IPOHE
[19] = post-emergence, 1,000 g/ha, evaluated after 13 days (100=total damage; 0=no damage), read-out: Percentage damage caused to weed species, SETFA
[20] = post-emergence, 1,000 g/ha, evaluated after 13 days (100=total damage; 0=no damage), read-out: Percentage damage caused to weed species, AMARE
[21] = post-emergence, 1,000 g/ha, evaluated after 13 days (100=total damage; 0=no damage), read-out: Percentage damage caused to weed species, ALOMY
[22] = post-emergence, 1,000 g/ha, evaluated after 13 days (100=total damage; 0=no damage), read-out: Percentage damage caused to weed species, SOLNI
[23] = post-emergence, 1,000 g/ha, evaluated after 13 days (100=total damage; 0=no damage), read-out: Percentage damage caused to weed species, ECHCG
[24] = post-emergence, 1,000 g/ha, evaluated after 13 days (100=total damage; 0=no damage), read-out: Percentage damage caused to weed species, IPOHE
[25] = pre-emergence, rate 1,000 g/ha, evaluated after 13 days (100=total damage to plant; 0=no damage), read-out: Percentage damage caused to weed species, SETFA
[26] = pre-emergence, rate 1,000 g/ha, evaluated after 13 days (100=total damage to plant; 0=no damage), read-out: Percentage damage caused to weed species, AMARE
[27] = pre-emergence, rate 1,000 g/ha, evaluated after 13 days (100=total damage to plant; 0=no damage), read-out: Percentage damage caused to weed species, ALOMY
[28] = pre-emergence, rate 1,000 g/ha, evaluated after 13 days (100=total damage to plant; 0=no damage), read-out: Percentage damage caused to weed species, SOLNI
[29] = pre-emergence, rate 1,000 g/ha, evaluated after 13 days (100=total damage to plant; 0=no damage), read-out: Percentage damage caused to weed species, ECHCG
[30] = pre-emergence, rate 1,000 g/ha, evaluated after 13 days (100=total damage to plant; 0=no damage), read-out: Percentage damage caused to weed species, IPOHE
[31] = Rate 1,000 g/ha, post-emergence spray, evaluated after 13 days (100=total damage to plant; 0=no damage to plant), read-out: Percentage damage caused to weed species, post-emergence, SETFA
[32] = Rate 1,000 g/ha, post-emergence spray, evaluated after 13 days (100=total damage to plant; 0=no damage to plant), read-out: Percentage damage caused to weed species, post-emergence, AMARE
[33] = Rate 1,000 g/ha, post-emergence spray, evaluated after 13 days (100=total damage to plant; 0=no damage to plant), read-out: Percentage damage caused to weed species, post-emergence, ALOMY
[34] = Rate 1,000 g/ha, post-emergence spray, evaluated after 13 days (100=total damage to plant; 0=no damage to plant), read-out: Percentage damage caused to weed species, post-emergence, SOLNI
[35] = Rate 1,000 g/ha, post-emergence spray, evaluated after 13 days (100=total damage to plant; 0=no damage to plant), read-out: Percentage damage caused to weed species, post-emergence, ECHCG
[36] = Rate 1,000 g/ha, post-emergence spray, evaluated after 13 days (100=total damage to plant; 0=no damage to plant), read-out: Percentage damage caused to weed species, post-emergence, IPOHE

SMILES	pest or weed control at 1000 g/ha [1, 25] [%]	pest or weed control at 1000 g/ha [2, 26] [%]	pest or weed control at 1000 g/ha [3, 27] [%]	pest or weed control at 1000 g/ha [4, 28] [%]	pest or weed control at 1000 g/ha [5, 29] [%]	pest or weed control at 1000 g/ha [6, 30] [%]	pest or weed control at 1000 g/ha [7, 31] [%]	pest or weed control at 1000 g/ha [8, 32] [%]	pest or weed control at 1000 g/ha [9, 33] [%]	pest or weed control at 1000 g/ha [10, 34] [%]	pest or weed control at 1000 g/ha [11, 35] [%]	pest or weed control at 1000 g/ha [12, 36] [%]	further results
COC(=O)c1nc(C2CC2)nc(NC(Cc2ccc(F)cc2)C(=O)OC)c1Cl (stereo not drawn) [Compound 4-284, 5-Chloro-2-cyclopropyl-4-[2-(4-fluorophenyl)-1-methoxycarbonyl-ethylamino]-6-methoxycarbonyl-pyrimidine]	–	–	–	–	–	–	–	–	–	–	–	–	pest or weed control at 1000 g/ha [1, 13]: 30%; pest or weed control at 1000 g/ha [2, 14]: 100%; pest or weed control at 1000 g/ha [3, 15]: 20%; pest or weed control at 1000 g/ha [4, 16]: 90%; pest or weed control at 1000 g/ha [5, 17]: 30%; pest or weed control at 1000 g/ha [6, 18]: 100%; pest or weed control at 1000 g/ha [7, 19]: 40%; pest or weed control at 1000 g/ha [8, 20]: 100%; pest or weed control at 1000 g/ha [9, 21]: 30%; pest or weed control at 1000 g/ha [10, 22]: 80%; pest or weed control at 1000 g/ha [11, 23]: 20%; pest or weed control at 1000 g/ha [12, 24]: 100%
COC(=O)c1nc(C2CC2)nc(NC(Cc2c[nH]c3ccccc23)C(=O)OC)c1Cl (stereo not drawn) [Compound 4-290, 5-Chloro-2-cyclopropyl-4-(2-indol-3-yl-1-methoxycarbonyl-ethylamino)-6-methoxycarbonyl-pyrimidine]	–	–	–	–	–	–	–	–	–	–	–	–	pest or weed control at 1000 g/ha [1, 13]: 30%; pest or weed control at 1000 g/ha [2, 14]: 80%; pest or weed control at 1000 g/ha [3, 15]: 20%; pest or weed control at 1000 g/ha [4, 16]: 80%; pest or weed control at 1000 g/ha [5, 17]: 40%; pest or weed control at 1000 g/ha [6, 18]: 90%; pest or weed control at 1000 g/ha [7, 19]: 50%; pest or weed control at 1000 g/ha [8, 20]: 100%; pest or weed control at 1000 g/ha [9, 21]: 30%; pest or weed control at 1000 g/ha [10, 22]: 80%; pest or weed control at 1000 g/ha [11, 23]: 30%; pest or weed control at 1000 g/ha [12, 24]: 70%
COC(=O)c1nc(C2CC2)nc(N(C)CC2OCCO2)c1Cl [Compound 5-54, 5-Chloro-2-cyclopropyl-4-[N-(1,3-dioxolan-2-yl)methyl-N-methyl-amino]-6-methoxycarbonyl-pyrimidine]	0	50	0	0	0	30	30	80	0	30	0	60	–
COC(=O)c1nc(C2CC2)nc(N(C)Cc2ccccc2Cl)c1Cl [Compound 5-61, 5-Chloro-4-[N-(2-chlorophenyl-methyl)-N-methyl-amino]-2-cyclopropyl-6-methoxycarbonyl-pyrimidine]	40	70	30	20	40	70	80	100	20	90	80	90	–
COC(=O)c1nc(C2CC2)nc(N(C)Cc2cccc(Cl)c2)c1Cl [Compound 5-62, 5-Chloro-4-[N-(3-chlorophenyl-methyl)-N-methyl-amino]-2-cyclo-propyl-6-methoxy-carbonylpyrimidine]	10	100	0	20	0	60	40	100	20	80	30	90	–
COC(=O)c1nc(C2CC2)nc(N(C)Cc2ccc(Cl)cc2)c1Cl [Compound 5-63, 5-Chloro-4-[N-(4-chlorophenyl-methyl)-N-methyl-amino]-2-cyclo-propyl-6-methoxy-carbonylpyrimidine]	20	100	10	30	0	70	70	100	30	80	40	90	–
COC(=O)c1nc(C2CC2)nc(N(C)Cc2ccccc2F)c1Cl [Compound 5-64, 5-Chloro-2-cyclo-propyl-4-[N-(2-fluorophenylmethyl)-N-methyl]-6-methoxy-carbonylpyrimidine]	10	70	10	70	20	80	90	100	20	90	80	100	–
COC(=O)c1nc(C2CC2)nc(N(C)Cc2cccc(F)c2)c1Cl [Compound 5-65, 5-Chloro-2-cyclopropyl-4-[N-(3-fluorophenylmethyl)-N-methyl-amino]-6-methoxy-carbonylpyrimidine]	20	100	20	90	10	100	80	100	30	100	70	90	–
